Assay [1] concerns Ramos B-Cell Line Stimulated with IL-4. The assay is described as follows: Assay for Ramos B-Cell Line Stimulated with IL-4 (CD23 upregulation, FACS; Example 2). It counts as cell-based. Conditions: human Ramos B cells, IL-4 50 units/mL for 20-24 hours, anti-CD23-PE. From the text:
One means of assaying for such inhibition is detection of the effect of the 2,4-pyrimidinediamine compounds on the upregulation of downstream gene products. In the Ramos/IL4 assay, B-cells are stimulated with the cytokine Interleukin-4 (IL-4) leading to the activation of the JAK/Stat pathway through phosphorylation of the JAK family kinases, JAK1 and JAK3, which in turn phosphorylate and activate the transcription factor Stat-6. […] To study the effect of inhibitors (e.g., the 2,4-substituted pyrimindinediamine compounds described herein) on the JAK1 and JAK3 kinases, human Ramos B cells are stimulated with human IL-4. 20 to 24 hours post stimulation, cells are stained for upregulation of CD23 and analyzed using flow cytometry (FACS). […] An exemplary assay of this type is described in greater detail in Example 2.
B-cells stimulated with cytokine Interleukin-4 (IL-4) activate the JAK/Stat pathway through phosphorylation of the JAK family kinases, JAK-1 and JAK-3, which in turn phosphorylate and activate the transcription factor Stat-6. […] To study the effect of inhibitors on the JAK family kinases, human Ramos B cells are stimulated with human IL-4.
The Ramos B-cell line was acquired from ATCC (ATCC Catalog No. CRL-1596). The cells were cultured in RPMI 1640 (Cellgro, MediaTech, Inc., Herndon, Va., Cat No. 10-040-CM) with 10% fetal bovine serum (FBS), heat inactivated (JRH Biosciences, Inc, Lenexa, Kans., Cat No. 12106-500M) according to ATCC propagation protocol. Cells were maintained at a density of 3.5×10^5. The day before the experiment, Ramos B-cells were diluted to 3.5×10^5 cells/mL to ensure that they were in a logarithmic growth phase.
Cells were spun down and suspended in RPMI with 5% serum. 5×10^4 cells were used per point in a 96-well tissue culture plate. Cells were pre-incubated with compound or DMSO (Sigma-Aldrich, St. Louis, Mo., Cat No. D2650) vehicle control for 1 hour in a 37° C. incubator.
Cells were then stimulated with IL-4 (Peprotech Inc., Rocky Hill, N.J., Cat No. 200-04) for a final concentration of 50 units/mL for 20-24 hours. Cells were then spun down and stained with anti-CD23-PE (BD Pharmingen, San Diego, Calif., Cat No. 555711) and analyzed by FACS. Detection was performed using a BD LSR I System Flow Cytometer, purchased from Becton Dickinson Biosciences of San Jose, Calif.

Another assay relates to BaF3 V617F cells; UKE-1. Nature of the assay: Proliferation Assay (Cell Titer-Glo; Example 7). It counts as cell-based. Conditions: proliferation 72 hours, inhibit JAK2 activity, cell line (BaF3 V617F or UKE-1) not stated. The method in brief:
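Proliferation IC50s reflect 72 h compound exposure at 37 °C, read by Cell Titer-Glo luminescence. Compound was serially diluted 3-fold from a 5 mM DMSO stock and added as a 2× solution; BaF3 V617F cells were grown in RPMI/10% FBS, UKE-1 in Iscove's DMEM with FBS, equine serum and hydrocortisone.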

Drawing on US8304422B2, “Compositions and methods for inhibition of the JAK pathway” (Rigel Pharmaceuticals, Inc., priority 2007, dated 2012), this text covers IC50 for 24 molecules.

Structures are written as SMILES.

For `NC(=O)c1ccc(Nc2ncc(F)c(Nc3ccc(CNS(=O)(=O)C4CC4)cc3)n2)cc1` [II-15, N2-(4-aminocarbonyl)phenyl-N4-(4-cyclopropylsulfonylaminomethyl)phenyl-5-fluoro-2,4-pyrimidinediamine], the figures for the IC50 (in assay [1]; in the assay on BaF3 V617F cells; UKE-1) were 0.0781 µM and 8.06 µM, respectively.
For `O=S(=O)(NCc1ccc(Nc2nc(NC3CCCC3)ncc2F)cc1)C1CC1` [VIII-2, N2-cyclopentyl-N4-(4-cyclopropylsulfonylaminomethyl)phenyl-5-fluoro-2,4-pyrimidinediamine], the 50% inhibitory concentration (IC50) (as a rule, the concentration at which inhibition is half-maximal) in assay [1] turned out to be 1.92 µM; with BaF3 V617F cells; UKE-1 it was 56.1 µM.
The corresponding values for `Cc1cnc(Nc2cccc(C#N)c2)nc1Nc1ccc(CN(C)S(=O)(=O)C2CC2)cc1` [II-28, N2-(3-cyano)phenyl-N4-[4-(N-cyclopropylsulfonyl-N-methyl)aminomethyl]phenyl-5-methyl-2,4-pyrimidinediamine] are 0.233 µM and 10.9 µM.
On to `Cc1cc(C)cc(Nc2ncc(C)c(Nc3ccc(CNS(=O)(=O)C4CC4)c(Cl)c3)n2)c1` [II-38, N4-(3-chloro-4-cyclopropylsulfonylaminomethyl)phenyl-N2-(3,5-dimethyl)phenyl-5-methyl-2,4-pyrimidinediamine], for which the IC50 was 0.331 µM in assay [1] and 1.54 µM with BaF3 V617F cells; UKE-1.
The corresponding values for `Cc1cnc(Nc2ccc(C(N)=O)cc2)nc1Nc1ccc(CNS(=O)(=O)C2CC2)c(Cl)c1` [II-17, N2-(4-aminocarbonyl)phenyl-N4-(3-chloro-4-cyclopropylsulfonylaminomethyl)phenyl-5-methyl-2,4-pyrimidinediamine] are 0.0871 µM and 2.95 µM.
The matching figures for `N#Cc1ccc(Nc2ncc(F)c(Nc3ccc(CNS(=O)(=O)C4CC4)cc3)n2)cc1Cl` [II-5, N2-(3-chloro-4-cyano)phenyl-N4-(4-cyclopropylsulfonylaminomethyl)phenyl-5-fluoro-2,4-pyrimidinediamine]: 0.364 µM and 6.06 µM.
The corresponding values for `Cc1cnc(Nc2cccc(C(N)=O)c2)nc1Nc1ccc(CNS(=O)(=O)C2CC2)cc1` [II-32, N2-(3-aminocarbonyl)phenyl-N4-(4-cyclopropylsulfonylaminomethyl)phenyl-5-methyl-2,4-pyrimidinediamine] are 0.0523 µM and 1.53 µM.
For `Cc1cnc(Nc2ccc(C#N)cc2)nc1Nc1ccc(CNS(=O)(=O)C2CC2)cc1` [II-33, N2-(4-cyano)phenyl-N4-(4-cyclopropylsulfonylaminomethyl)phenyl-5-methyl-2,4-pyrimidinediamine], the half-inhibitory concentration (IC50) in assay [1] amounted to 0.0203 µM; in the assay on BaF3 V617F cells; UKE-1, 0.698 µM.
The matching figures for `Cc1nc2cc(Nc3ncc(C)c(Nc4ccc(CNS(=O)(=O)C5CC5)cc4)n3)ccc2[nH]1` [III-3, N4-(4-cyclopropylsulfonylaminomethyl)phenyl-5-methyl-N2-(2-methylbenzoimidazol-5-yl)-2,4-pyrimidinediamine]: 0.0494 µM and 5.8 µM.
For `Cc1cc(C)cc(Nc2ncc(C)c(Nc3cccc(CN(C)S(=O)(=O)C4CC4)c3)n2)c1` [II-40, N4-[3-(N-cyclopropylsulfonyl-N-methyl)aminomethyl]phenyl-N2-(3,5-dimethyl)phenyl-5-methyl-2,4-pyrimidinediamine], the half-inhibitory concentration (IC50) in assay [1] is 0.704 µM; in the assay on BaF3 V617F cells; UKE-1, 2.2 µM.
The corresponding values for `COc1ccc(Nc2ncc(Cl)c(Nc3ccc(CNS(=O)(=O)C4CC4)cc3)n2)cc1Cl` [II-35, 5-chloro-N2-(3-chloro-4-methoxy)phenyl-N4-(4-cyclopropylsulfonylaminomethyl)phenyl-2,4-pyrimidinediamine] are 0.0489 µM and 0.912 µM.
Take `COc1c(C)cc(Nc2ncc(C)c(Nc3ccc(CNS(=O)(=O)C4CC4)cc3)n2)cc1C` [II-42, N4-(4-cyclopropylsulfonylaminomethyl)phenyl-N2-(3,5-dimethyl-4-methoxy)phenyl-5-methyl-2,4-pyrimidinediamine]: the IC50 in assay [1] was found to be 0.0247 µM; with BaF3 V617F cells; UKE-1, 0.0637 µM.
The matching figures for `COc1ccc(Nc2ncc(C)c(Nc3cccc(CNS(=O)(=O)C4CC4)c3)n2)cc1Cl` [II-14, N2-(3-chloro-4-methoxy)phenyl-N4-(3-cyclopropylsulfonylaminomethyl)phenyl-5-methyl-2,4-pyrimidinediamine]: 0.152 µM and 2.19 µM.
The corresponding values for `Cc1cc(C)cc(Nc2ncc(F)c(Nc3ccc(CNS(=O)(=O)C4CC4)cc3)n2)c1` [II-4, N4-(4-cyclopropylsulfonylaminomethyl)phenyl-N2-(3,5-dimethyl)phenyl-5-fluoro-2,4-pyrimidinediamine] are 0.088 µM and 3.4 µM.
The corresponding values for `O=S(=O)(NCc1ccc(Nc2nc(Nc3ccc4ccn(CCN5CCOCC5)c4c3)ncc2F)cc1)C1CC1` [III-1, N4-[4-(Cyclopropylsulfonylaminomethyl)phenyl]-5-fluoro-N2-[1-(2-(N-morpholino)ethyl)indol-6-yl]-2,4-pyrimidinediamine] are 0.29 µM and 2.97 µM.
`COc1c(C)cc(Nc2ncc(F)c(Nc3ccc(CNS(=O)(=O)C4CC4)cc3)n2)cc1C` [II-41, N4-(4-cyclopropylsulfonylaminomethyl)phenyl-N2-(3,5-dimethyl-4-methoxy)phenyl-5-fluoro-2,4-pyrimidinediamine]: the concentration for half-maximal inhibition (IC50) in assay [1] was determined as 0.0378 µM; with BaF3 V617F cells; UKE-1, 0.123 µM.
The corresponding values for `COc1c(C)cc(Nc2ncc(C)c(Nc3cccc(CNS(=O)(=O)C4CC4)c3)n2)cc1C` [II-44, N4-(3-cyclopropylsulfonylaminomethyl)phenyl-N2-(3,5-dimethyl-4-methoxy)phenyl-5-methyl-2,4-pyrimidinediamine] are 0.0783 µM and 0.488 µM.
The matching figures for `COc1cc(Nc2ncc(C)c(Nc3cccc(CNS(=O)(=O)C4CC4)c3)n2)cc(OC)c1OC` [II-13, N4-(3-cyclopropylsulfonylaminomethyl)phenyl-5-methyl-N2-(3,4,5-trimethoxy)phenyl-2,4-pyrimidinediamine]: 0.126 µM and 0.359 µM.
With `N#Cc1cccc(Nc2ncc(F)c(Nc3ccc(CNS(=O)(=O)C4CC4)cc3)n2)c1` [II-30, N2-(3-cyano)phenyl-N4-(4-cyclopropylsulfonylaminomethyl)phenyl-5-fluoro-2,4-pyrimidinediamine], the figures for the concentration for half-maximal inhibition (IC50) (in assay [1]; in the assay with BaF3 V617F cells; UKE-1) were 0.0946 µM and 1.13 µM, respectively.
The matching figures for `Cc1cnc(Nc2ccc(C(N)=O)cc2)nc1Nc1cccc(CNS(=O)(=O)C2CC2)c1` [II-23, N2-(4-aminocarbonyl)phenyl-N4-(3-cyclopropylsulfonylaminomethyl)phenyl-5-methyl-2,4-pyrimidinediamine]: 0.107 µM and 6.14 µM.
The matching figures for `NC(=O)c1cccc(Nc2ncc(F)c(Nc3ccc(CNS(=O)(=O)C4CC4)cc3)n2)c1` [II-16, N2-(3-aminocarbonyl)phenyl-N4-(4-cyclopropylsulfonylaminomethyl)phenyl-5-fluoro-2,4-pyrimidinediamine]: 0.265 µM and 3.29 µM.
On to `COc1c(C)cc(Nc2ncc(Cl)c(Nc3ccc(CNS(=O)(=O)C4CC4)cc3)n2)cc1C` [II-43, 5-chloro-N4-(4-cyclopropylsulfonylaminomethyl)phenyl-N2-(3,5-dimethyl-4-methoxy)phenyl-2,4-pyrimidinediamine], for which the IC50 worked out at 0.0386 µM in assay [1] and 0.0239 µM with BaF3 V617F cells; UKE-1.
The corresponding values for `CCN1CCN(c2ccc(Nc3ncc(C)c(Nc4ccc(CNS(=O)(=O)C5CC5)cc4)n3)cc2C)CC1` [II-8, N4-(4-cyclopropylsulfonylaminomethyl)phenyl-N2-[4-(4-ethylpiperazino)-3-methyl]phenyl-5-methyl-2,4-pyrimidinediamine] are 0.0362 µM and 0.2 µM.
The matching figures for `COc1ccc(Nc2ncc(C)c(Nc3ccc(CNS(=O)(=O)C4CC4)cc3)n2)cc1Cl` [II-10, N2-(3-chloro-4-methoxy)phenyl-N4-(4-cyclopropylsulfonylaminomethyl)phenyl-5-methyl-2,4-pyrimidinediamine]: 0.0578 µM and 0.708 µM.
